Patent publication US7323480B2, “Substituted triazoles as modulators of PPAR and methods of their preparation” (Metabolex, Inc., priority 2004, dated 2008)
Where two headings read alike, the source gives them in different places.

Assays:
Assay type in all cases: cell-based
[1] = target: T1, mouse PPARγ (Mus musculus, UniProt P37238); experiment: PPARγ transactivation (GAL4 chimera luciferase gene activation) assay; settings: GAL4 DNA binding domain-PPARγ ligand binding domain chimera, pFR-Luc reporter, HEK293T cells, 20 hours incubation
T1 construct: expressed in transfected cells; host or cells: HEK293T
T1 sequence (P37238 238-503 limits assumed): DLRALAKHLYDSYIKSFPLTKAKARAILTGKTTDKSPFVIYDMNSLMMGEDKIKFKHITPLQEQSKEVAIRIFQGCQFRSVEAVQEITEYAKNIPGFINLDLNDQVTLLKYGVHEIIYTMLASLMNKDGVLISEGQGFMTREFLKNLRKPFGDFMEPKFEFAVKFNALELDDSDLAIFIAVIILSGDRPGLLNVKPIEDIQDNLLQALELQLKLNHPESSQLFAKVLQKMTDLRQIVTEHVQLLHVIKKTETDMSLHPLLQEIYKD
Text: (§1) Measurement of PPARγ, δ, and α Transactivation Activity
(§2) Chimeric receptors were constructed in which the yeast transcription factor GAL4 DNA binding domain was fused to the ligand binding domain of either mouse PPARγ, mouse PPAR δ or mouse PPAR α in order to assess the ability of the compounds of the present invention to activate gene expression in a PPAR-dependent manner. The chimeric receptor expression plasmids (GAL4-nPPARγ, GAL4-mPPAR δ and GAL4-PPAR α) and the reporter plasmid containing 5×GAL4 binding site (pFR-Luc, obtained from Stratagene) were transfected into HEK293T cells using the Lipofectamine 2000 reagent (Invitrogen), according to the manufacturers instructions. Six hours after transfection, the culture medium was renewed and the cells were incubated for 20 hours in presence of either 1) DMSO (vehicle), 2) a compound of the invention or 3) a reference compound for comparison. Rosiglitazone (obtained from WDF Pharma) was used as a reference compound for the PPARγ assay; GW501516 (prepared as described in Sznaidman et al. Bioorg. Med. Chem. Lett. (2003) 13:1517-1521) was used as a reference compound for the PPAR δ assay and GW7647 (obtained from Sigma) was used as a reference compound for the PPAR α assay. Luciferase activity was measured as a reporter of gene expression. Luciferase activity on the cell lysates using the Steady-Glo reagent was measured according to the manufacturers instructions.

[2] = target: T2, mouse PPAR δ (Mus musculus, UniProt P35396); experiment: PPAR δ transactivation (GAL4 chimera luciferase gene activation) assay; settings: GAL4 DNA binding domain-PPAR δ ligand binding domain chimera, pFR-Luc reporter, HEK293T cells, 20 hours incubation; read-out: Gene Activation Assay: EC50 PPAR delta
T2 construct: expressed in transfected cells; host or cells: HEK293T
T2 sequence (P35396 210-438 limits assumed): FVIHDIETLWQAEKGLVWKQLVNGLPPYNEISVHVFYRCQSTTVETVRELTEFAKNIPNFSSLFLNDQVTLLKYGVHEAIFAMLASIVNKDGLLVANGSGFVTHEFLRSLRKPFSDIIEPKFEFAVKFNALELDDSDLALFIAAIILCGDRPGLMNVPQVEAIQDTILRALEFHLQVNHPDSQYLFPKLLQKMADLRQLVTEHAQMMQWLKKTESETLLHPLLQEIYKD
Text: as §1, §2

[3] = target: T3, mouse PPAR α (Mus musculus, UniProt P23204); experiment: PPAR α transactivation (GAL4 chimera luciferase gene activation) assay; settings: GAL4 DNA binding domain-PPAR α ligand binding domain chimera, pFR-Luc reporter, HEK293T cells, 20 hours incubation; read-out: Gene Activation Assay: EC50 PPAR alpha
T3 construct: expressed in transfected cells; host or cells: HEK293T
T3 sequence (P23204 239-466 limits assumed): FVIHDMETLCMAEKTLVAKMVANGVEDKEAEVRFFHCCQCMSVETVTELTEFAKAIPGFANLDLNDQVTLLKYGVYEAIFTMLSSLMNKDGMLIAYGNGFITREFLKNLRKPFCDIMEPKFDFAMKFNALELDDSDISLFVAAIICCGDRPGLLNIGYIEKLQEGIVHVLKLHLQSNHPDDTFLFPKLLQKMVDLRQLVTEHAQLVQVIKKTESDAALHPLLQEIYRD
Text: as §1, §2

[4] = read-out: Gene Activation Assay: EC50 PPAR gamma

EC50 [1, 4]	EC50 [2]	EC50 [3]	EC50 ([1]; read-out: Gene Activation Assay: EC50 PPAR gamma (number printed instead of a symbol))	SMILES
> 30 µM	≤ 10 µM	> 30 µM		CCCc1cc(CC(=O)O)ccc1OCc1nn(-c2ccc(C(F)(F)F)cc2)nc1C [Compound 660, {3-Propyl-4-[5-methyl-2-(4-trifluoromethyl-phenyl)-2H-[1,2,3]triazol-4-ylmethoxy]-phenyl}-acetic acid]
> 30 µM	≤ 10 µM	≤ 10 µM		Cc1cc(SCc2nn(-c3ccc(C(F)(F)F)cc3)nc2-c2ccccc2)ccc1OCC(=O)O [Compound 340, {2-Methyl-4-[5-phenyl-2-(4-trifluoromethyl-phenyl)-2H-[1,2,3]triazol-4-ylmethylsulfanyl]-phenoxy}-acetic acid]
> 30 µM	≤ 10 µM	≤ 10 µM		Cc1cc(SCCc2nn(-c3ccc(C(F)(F)F)cc3)nc2C)ccc1OCC(=O)O [Compound 580, (2-Methyl-4-{2-[5-methyl-2-(4-trifluoromethyl-phenyl)-2H-[1,2,3]triazol-4-yl]-ethylsulfanyl}-phenoxy)-acetic acid]
> 10 µM	≤ 10 µM	≤ 10 µM		Cc1cc(SCc2nn(-c3cccc(C(F)(F)F)c3)nc2C)ccc1OCC(=O)O [Compound 480, {2-Methyl-4-[5-methyl-2-(3-trifluoromethyl-phenyl)-2H-[1,2,3]triazol-4-ylmethylsulfanyl]-phenoxy}-acetic acid]
> 30 µM	≤ 10 µM	> 10 µM		Cc1cc(SCc2nn(-c3ccc(C(F)(F)F)cc3)nc2C(C)C)ccc1OCC(=O)O [Compound 320, {4-[5-Isopropyl-2-(4-trifluoromethyl-phenyl)-2H-[1,2,3]triazol-4-ylmethylsulfanyl]-2-methyl-phenoxy}-acetic acid]
> 30 µM	≤ 10 µM	> 10 µM		Cc1cc(SCc2nn(-c3ccc(Cl)c(Cl)c3)nc2C)ccc1OCC(=O)O [Compound 640, {4-[2-(3,4-Dichloro-phenyl)-5-methyl-2H-[1,2,3]triazol-4-ylmethylsulfanyl]-2-methyl-phenoxy}-acetic acid]
> 30 µM	≤ 10 µM	> 10 µM		Cc1cc(SCc2nn(-c3ccc(C(F)(F)F)cc3)nc2C(F)(F)F)ccc1OCC(=O)O [Compound 360, {2-Methyl-4-[5-trifluoromethyl-2-(4-trifluoromethyl-phenyl)-2H-[1,2,3]triazol-4-ylmethylsulfanyl]-phenoxy}-acetic acid]
	≤ 10 µM	≤ 10 µM	10 µM	Cc1cc(SCc2nn(-c3ccc(C(F)(F)F)cc3)nc2C)ccc1OC(C)(C)C(=O)O [Compound 210, 2-Methyl-2-{2-methyl-4-[5-methyl-2-(4-trifluoromethyl-phenyl)-2H-[1,2,3]triazol-4-ylmethylsulfanyl]-phenoxy}-propionic acid]
≤ 10 µM	≤ 10 µM	≤ 10 µM		Cc1cc(SCc2nn(-c3ccc(C(F)(F)F)cc3)nc2C)ccc1OC(C)C(=O)O (stereo not drawn) [Compound 110, 2-{2-Methyl-4-[5-methyl-2-(4-trifluoromethyl-phenyl)-2H-[1,2,3]triazol-4-ylmethylsulfanyl]-phenoxy}-propionic acid]
> 30 µM	≤ 10 µM	> 10 µM		Cc1nn(-c2ccc(C(F)(F)F)cc2)nc1COc1ccc(CC(=O)O)cc1 [Compound 670]
> 10 µM	≤ 10 µM	> 10 µM		COc1ccc(-n2nc(C)c(CSc3ccc(OCC(=O)O)c(C)c3)n2)cc1 [Compound 440, {4-[2-(4-Methoxy-phenyl)-5-methyl-2H-[1,2,3]triazol-4-ylmethylsulfanyl]-2-methyl-phenoxy}-acetic acid]
> 30 µM	≤ 10 µM	> 10 µM		Cc1cc(SCc2nn(-c3ccc(C(F)(F)F)cc3)nc2C)ccc1OCC(=O)O [Compound 100, {2-Methyl-4-[5-methyl-2-(4-trifluoromethyl-phenyl)-2H-[1,2,3]triazol-4-ylmethylsulfanyl]-phenoxy}-acetic acid]
